Here are results for one compound from patent publication US12168662B1, “Pyrido[4′,3′:4,5]pyrrolo[2,3-c][2,7]naphthyridines compounds as CK2 inhibitors” (KING FAISAL UNIVERSITY, priority 2023, dated 2024).

The target in assay [1] is T1, recombinant human CK2 (RRββ-holoenzyme) (Homo sapiens, UniProt P68400).
T1 construct: purchased Millipore
As to the kind of experiment: CK2 Kinase Assay (radiometric, [γ-33P] ATP). Format: biochemical. The note with it: final ATP concentration 15 μM, 10 min at 30° C., eight concentrations; read-out: protein kinase CK2 activity IC50. As for the experimental part: CK2 Kinase Assay was conducted using the protocol as described in Pierre F. et al; J. Med. Chem. 2011, 54, 635-654. The tested compounds in aqueous solution were added at a volume of 10 μL to a reaction mixture comprising 10 μL of assay dilution buffer (ADB; 20 mM MOPS, pH 7.2, 25 mM β-glycerol phosphate, 5 mM EGTA, 1 mM sodium orthovanadate, and 1 mM dithiothreitol), 10 μL of substrate peptide (RRRDDDSDDD, dissolved in ADB at a concentration of 1 mM), 10 μL of recombinant human CK2 (RRββ-holoenzyme, 25 ng dissolved in ADB; Millipore). Reactions were initiated by the addition of 10 μL of ATP solution (90% 75 mMMgC2, 75 μM ATP (final ATP concentration: 15 μM) dissolved in ADB; 10% [γ-33P] ATP (stock 1 mCi/100 μL; 3000 Ci/mmol (Perkin-Elmer) and maintained for 10 min at 30° C. The reactions were quenched with 100 μL of 0.75% phosphoric acid and then transferred to and filtered through a phosphor cellulose filter plate (Millipore). After washing each well five times with 0.75% phosphoric acid, the plate was dried under vacuum for 5 min and, following the addition of 15 μL of scintillation fluid to each well, the residual radioactivity was measured using a Wallac luminescence counter. The IC50 values were derived from eight concentrations of test inhibitors.

In another assay the test system is MIAPaCa-2 (pancreas). In words: In vitro cytotoxic activity assay (MTT). The class given is cell-based. The settings on record: Homo sapiens, MIA PaCa-2; MIAPaCa-2 cells, exposed for 96 hours, 50% inhibition of cell proliferation; read-out: Cytotoxicity activity IC50, MIAPaCa-2 (pancreas). As for the experimental part: (§1) Compounds 1-16 were screened for their in vitro cytotoxic activity utilizing a 3-(4,5-dimethyl-thiazol-2-yl)-2,5-diphenyltetrazolium bromide (MTT) assay against selected cancer human cell lines consisting of PC3 (prostate), HCT116 (colon), A375 (melanoma), H1299 (lung), MIAPaCa-2 (pancreas), HL60 (leukemia), MCF7 (breast), MDA-MB-231 (breast) (T. Mosmann, J. Immunol. Meth., 1983, 65, 55-63). The cells were cultured at 37° C. in RMPI1640 medium supplemented with 10% fetal bovine serum, 50 IU/mL penicillin, and 50 μg/mL streptomycin in a 5% CO2 incubator. All cells were sub-cultured 3 times/week by trypsinisation. Viable cells were seeded and allowed to adhere for 12 hours before a test drug was added in 96-well plates at an initial density of 1.0×10^5 cells/mL. Tumor cell lines were separately exposed to various concentrations of the tested compounds followed by incubation at a temperature of 37° C. during 96 hours inside a medium of fresh RMPI 1640. Cells were subsequently incubated at 37° C. using MTT at 0.5 mg/mL during 4 hours. After removal of supernatant, formazan crystals were dissolved in isopropanol and the optical density was measured at 570 nm. CX-4945 was used as a positive control.

A further assay deals with PC3 (prostate). In words: In vitro cytotoxic activity assay (MTT). The class given is cell-based. The settings on record: Homo sapiens, PC-3; PC3 cells, exposed for 96 hours, 50% inhibition of cell proliferation; read-out: Cytotoxicity activity IC50, PC3 (prostate). The protocol:
as §1

The next assay has as its system HL60 (leukemia). As to the kind of experiment: In vitro cytotoxic activity assay (MTT). The class given is cell-based. The note with it: Homo sapiens, HL-60; HL60 cells, exposed for 96 hours, 50% inhibition of cell proliferation; read-out: Cytotoxicity activity IC50, HL60 (leukemia). As for the experimental part:
as §1

A further assay has as its system MDA-MB-231 (breast). In words: In vitro cytotoxic activity assay (MTT). The settings on record: Homo sapiens; MDA-MB-231 cells, exposed for 96 hours, 50% inhibition of cell proliferation; read-out: Cytotoxicity activity IC50, MDA-MB-231 (breast). The class given is cell-based. The protocol: as §1
In another assay the test system is HCT116 (colon). In words: In vitro cytotoxic activity assay (MTT). The class given is cell-based. The note with it: Homo sapiens, HCT-116; HCT116 cells, exposed for 96 hours, 50% inhibition of cell proliferation; read-out: Cytotoxicity activity IC50, HCT116 (colon). The protocol: as §1
The next assay concerns A375 (melanoma). As to the kind of experiment: In vitro cytotoxic activity assay (MTT). Format: cell-based. The note with it: Homo sapiens, A-375; A375 cells, exposed for 96 hours, 50% inhibition of cell proliferation; read-out: Cytotoxicity activity IC50, A375 (melanoma). As for the experimental part: as §1
The test system of another assay is MCF7 (breast). As to the kind of experiment: In vitro cytotoxic activity assay (MTT). The class given is cell-based. The settings on record: Homo sapiens; MCF7 cells, exposed for 96 hours, 50% inhibition of cell proliferation; read-out: Cytotoxicity activity IC50, MCF7 (breast). The protocol: as §1
The next assay has as its system H1299 (lung). In words: In vitro cytotoxic activity assay (MTT). The class given is cell-based. The note with it: Homo sapiens, NCI-H1299; H1299 cells, exposed for 96 hours, 50% inhibition of cell proliferation; read-out: Cytotoxicity activity IC50, H1299 (lung). As for the experimental part:
as §1

T1 sequence (P68400 whole entry): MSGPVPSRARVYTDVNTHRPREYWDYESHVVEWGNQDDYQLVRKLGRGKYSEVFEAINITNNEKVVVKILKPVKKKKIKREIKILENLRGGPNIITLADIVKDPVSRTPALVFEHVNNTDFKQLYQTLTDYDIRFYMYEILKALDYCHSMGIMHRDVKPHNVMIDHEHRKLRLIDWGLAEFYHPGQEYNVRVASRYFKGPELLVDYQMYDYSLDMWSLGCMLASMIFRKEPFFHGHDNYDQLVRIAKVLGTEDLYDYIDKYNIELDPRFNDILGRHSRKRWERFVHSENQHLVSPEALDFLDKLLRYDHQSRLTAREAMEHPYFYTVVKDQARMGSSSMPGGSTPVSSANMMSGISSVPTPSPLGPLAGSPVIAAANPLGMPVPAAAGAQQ
T1 sequence (P67870 whole entry partner): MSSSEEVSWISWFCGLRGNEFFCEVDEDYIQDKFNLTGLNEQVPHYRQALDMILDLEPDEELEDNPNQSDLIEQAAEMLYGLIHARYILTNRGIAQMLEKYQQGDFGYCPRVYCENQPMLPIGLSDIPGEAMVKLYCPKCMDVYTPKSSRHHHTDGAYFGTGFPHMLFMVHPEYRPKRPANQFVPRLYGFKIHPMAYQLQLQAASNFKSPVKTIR

As for `Clc1cccc(Nc2nc3[nH]c4cnccc4c3c3ccncc23)c1` [Compound 1, N-(3-chlorophenyl)-7H-pyrido[4′,3′:4,5]pyrrolo[2,3-c][2,7]naphthyridin-5-amine], the IC50 stood at 334 nM in assay [1]; 2400 nM in the assay on MIAPaCa-2 (pancreas); 1300 nM in the assay with PC3 (prostate); 3300 nM in the assay on HL60 (leukemia); 4400 nM with MDA-MB-231 (breast); 1500 nM in the assay with HCT116 (colon). Further, the IC50 with A375 (melanoma) was found to be 4700 nM; with MCF7 (breast) it was 5200 nM; with H1299 (lung), 1800 nM.
